The results in this text go back to ChEMBL document CHEMBL5696442, “Discovery of type II inhibitors of TGFβ-activated kinase 1 (TAK1) and mitogen-activated protein kinase kinase kinase kinase 2 (MAP4K2)” (J Med Chem, 2015).

What is called residual activity is the share of the control activity or signal that is left under treatment. Broadly, the inhibition is the relative decrease from the control value, in per cent.

Test [1] has as its target Ephrin type-A receptor 3 (Homo sapiens) (UniProt P29320). The test is described as follows: Inhibition of EPHA3 (unknown origin) at 1 uM by Ambit Kinomescan binding assay relative to control; values are per cent of control.
Test [2] addresses Phosphatidylinositol 4,5-bisphosphate 3-kinase catalytic subunit alpha isoform (Homo sapiens) (UniProt P42336). The test is described as follows: Inhibition of PIK3CA ATP labeling site in human A-375 cells at 0.05 uM by KiNativ Profiling analysis relative to control. The test is classed as cell-based.
Test [3] concerns the target T1, Ephrin type-B receptor 4 (Homo sapiens) (UniProt P54760).
T1 sequence (whole entry): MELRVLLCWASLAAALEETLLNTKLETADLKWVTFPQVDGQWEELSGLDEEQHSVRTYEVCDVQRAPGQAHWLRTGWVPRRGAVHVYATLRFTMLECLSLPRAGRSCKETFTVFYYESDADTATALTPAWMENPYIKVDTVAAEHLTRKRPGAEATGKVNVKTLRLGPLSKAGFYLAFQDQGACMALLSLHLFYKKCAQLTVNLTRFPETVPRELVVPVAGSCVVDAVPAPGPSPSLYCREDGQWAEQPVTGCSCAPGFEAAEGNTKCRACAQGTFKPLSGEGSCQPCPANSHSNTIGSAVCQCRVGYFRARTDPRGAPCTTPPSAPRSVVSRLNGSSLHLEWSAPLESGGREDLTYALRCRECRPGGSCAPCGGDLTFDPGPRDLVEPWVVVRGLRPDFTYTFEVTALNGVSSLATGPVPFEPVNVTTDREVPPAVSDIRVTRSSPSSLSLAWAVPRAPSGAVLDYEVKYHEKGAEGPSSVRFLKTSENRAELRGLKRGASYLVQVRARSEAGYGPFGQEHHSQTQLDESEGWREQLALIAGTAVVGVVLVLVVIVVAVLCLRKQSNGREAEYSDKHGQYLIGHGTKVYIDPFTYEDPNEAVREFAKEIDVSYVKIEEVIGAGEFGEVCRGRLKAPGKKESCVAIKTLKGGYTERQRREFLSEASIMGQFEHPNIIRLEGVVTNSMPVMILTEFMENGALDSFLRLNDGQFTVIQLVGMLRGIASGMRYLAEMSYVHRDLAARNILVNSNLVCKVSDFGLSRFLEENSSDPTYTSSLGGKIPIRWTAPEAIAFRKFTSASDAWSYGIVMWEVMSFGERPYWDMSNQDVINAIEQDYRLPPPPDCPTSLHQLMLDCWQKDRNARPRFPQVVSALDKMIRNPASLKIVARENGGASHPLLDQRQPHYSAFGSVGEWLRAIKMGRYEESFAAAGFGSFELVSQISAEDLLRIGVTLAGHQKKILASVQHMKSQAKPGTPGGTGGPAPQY
The experiment in a line: Inhibition of EPHB4 (unknown origin) at 1 uM by Ambit Kinomescan binding assay relative to control.

Test [4] has as its target Calcium-dependent protein kinase 1 (Plasmodium falciparum) (UniProt P62344). The experiment in a line: Inhibition of Plasmodium falciparum PFCDPK1 at 1 uM by Ambit Kinomescan binding assay relative to control; values are per cent of control.
The target in test [5] is T2, Serine/threonine-protein kinase TBK1 (Homo sapiens) (UniProt Q9UHD2).
T2 sequence (whole entry): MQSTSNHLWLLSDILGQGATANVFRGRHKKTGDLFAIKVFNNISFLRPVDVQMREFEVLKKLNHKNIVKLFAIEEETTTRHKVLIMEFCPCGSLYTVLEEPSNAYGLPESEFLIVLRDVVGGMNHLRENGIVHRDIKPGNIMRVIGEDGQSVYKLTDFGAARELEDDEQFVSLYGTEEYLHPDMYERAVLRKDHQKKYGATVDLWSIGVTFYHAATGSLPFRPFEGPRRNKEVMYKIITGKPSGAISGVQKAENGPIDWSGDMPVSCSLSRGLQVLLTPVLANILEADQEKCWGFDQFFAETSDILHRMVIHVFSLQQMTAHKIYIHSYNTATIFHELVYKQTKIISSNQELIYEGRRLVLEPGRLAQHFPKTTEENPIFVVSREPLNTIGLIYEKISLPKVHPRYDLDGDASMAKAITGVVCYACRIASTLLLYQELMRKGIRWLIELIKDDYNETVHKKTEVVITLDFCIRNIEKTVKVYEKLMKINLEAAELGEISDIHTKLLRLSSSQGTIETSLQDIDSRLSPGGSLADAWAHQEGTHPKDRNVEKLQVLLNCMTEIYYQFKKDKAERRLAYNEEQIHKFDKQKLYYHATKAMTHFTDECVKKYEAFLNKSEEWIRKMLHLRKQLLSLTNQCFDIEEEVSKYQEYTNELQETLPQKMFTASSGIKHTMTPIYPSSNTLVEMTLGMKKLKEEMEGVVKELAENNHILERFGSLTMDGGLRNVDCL
The test is described as follows: Inhibition of TBK1 Lys2 labeling site in human A-375 cells at 5 uM by KiNativ Profiling analysis relative to control. The test is classed as cell-based.

Test [6] in a line: Inhibition of MARK2/3 K2 labeling site in human Huh-7 cells at 10 uM by KiNativ Profiling analysis relative to control. The settings on record: condition cancer.
In test [7] the target is T3, Aurora kinase A (Homo sapiens) (UniProt O14965).
T3 sequence (whole entry): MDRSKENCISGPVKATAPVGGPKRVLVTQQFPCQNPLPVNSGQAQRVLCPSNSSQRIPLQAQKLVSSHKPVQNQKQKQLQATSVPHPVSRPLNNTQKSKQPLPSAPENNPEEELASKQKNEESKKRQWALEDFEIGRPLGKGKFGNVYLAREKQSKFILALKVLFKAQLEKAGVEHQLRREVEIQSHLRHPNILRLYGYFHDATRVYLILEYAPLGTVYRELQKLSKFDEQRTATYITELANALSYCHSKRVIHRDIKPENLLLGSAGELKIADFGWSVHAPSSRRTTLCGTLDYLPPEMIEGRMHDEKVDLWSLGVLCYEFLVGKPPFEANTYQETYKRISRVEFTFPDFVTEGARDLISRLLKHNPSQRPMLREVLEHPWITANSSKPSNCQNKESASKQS
The experiment in a line: Inhibition of AurA K2 labeling site harbouring VIHRDIKPENLLLGSAGELK in human Huh-7 cells at 10 uM by KiNativ Profiling analysis relative to control. The class given is cell-based.

Test [8] concerns the target Dual specificity mitogen-activated protein kinase kinase; MEK1/2 (Homo sapiens) (UniProt P36507+Q02750). The experiment in a line: Inhibition of MAP2K1/2 K2 labeling site in human Huh-7 cells at 1 uM by KiNativ Profiling analysis relative to control. The class given is cell-based.
The target in test [9] is Calcium/calmodulin-dependent protein kinase type II subunit gamma (Homo sapiens) (UniProt Q13555). The test is described as follows: Inhibition of CaMK2g Lys2 labeling site in human Huh-7 cells at 1 uM by KiNativ Profiling analysis relative to control. The class given is cell-based.
Test [10] addresses Mitogen-activated protein kinase kinase kinase 11 (Homo sapiens) (UniProt Q16584). The experiment in a line: Inhibition of MLK3 Lys2 labeling site in human Huh-7 cell lysate at 1 uM by KiNativ Profiling analysis relative to control. The test is classed as subcellular.

Activity calls are given as the source filed them. The rule behind the calls is not given here.

Sequence of Calcium-dependent protein kinase 1 (Plasmodium falciparum) (P62344 2-524 limits assumed): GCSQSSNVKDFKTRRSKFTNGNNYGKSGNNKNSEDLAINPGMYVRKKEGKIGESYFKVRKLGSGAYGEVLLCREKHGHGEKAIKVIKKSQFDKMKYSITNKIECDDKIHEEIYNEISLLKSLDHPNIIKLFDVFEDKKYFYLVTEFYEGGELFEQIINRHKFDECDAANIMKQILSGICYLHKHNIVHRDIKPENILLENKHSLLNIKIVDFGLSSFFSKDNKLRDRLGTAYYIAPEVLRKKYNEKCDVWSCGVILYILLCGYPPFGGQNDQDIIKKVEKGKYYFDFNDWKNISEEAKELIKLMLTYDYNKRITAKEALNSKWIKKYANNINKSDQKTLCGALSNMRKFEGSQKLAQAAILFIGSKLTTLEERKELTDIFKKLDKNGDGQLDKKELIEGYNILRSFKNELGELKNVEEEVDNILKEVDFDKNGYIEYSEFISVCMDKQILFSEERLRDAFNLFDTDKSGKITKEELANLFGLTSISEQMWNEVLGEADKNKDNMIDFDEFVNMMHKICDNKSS
Sequence of Ephrin type-A receptor 3 (Homo sapiens) (P29320 whole entry, canonical isoform): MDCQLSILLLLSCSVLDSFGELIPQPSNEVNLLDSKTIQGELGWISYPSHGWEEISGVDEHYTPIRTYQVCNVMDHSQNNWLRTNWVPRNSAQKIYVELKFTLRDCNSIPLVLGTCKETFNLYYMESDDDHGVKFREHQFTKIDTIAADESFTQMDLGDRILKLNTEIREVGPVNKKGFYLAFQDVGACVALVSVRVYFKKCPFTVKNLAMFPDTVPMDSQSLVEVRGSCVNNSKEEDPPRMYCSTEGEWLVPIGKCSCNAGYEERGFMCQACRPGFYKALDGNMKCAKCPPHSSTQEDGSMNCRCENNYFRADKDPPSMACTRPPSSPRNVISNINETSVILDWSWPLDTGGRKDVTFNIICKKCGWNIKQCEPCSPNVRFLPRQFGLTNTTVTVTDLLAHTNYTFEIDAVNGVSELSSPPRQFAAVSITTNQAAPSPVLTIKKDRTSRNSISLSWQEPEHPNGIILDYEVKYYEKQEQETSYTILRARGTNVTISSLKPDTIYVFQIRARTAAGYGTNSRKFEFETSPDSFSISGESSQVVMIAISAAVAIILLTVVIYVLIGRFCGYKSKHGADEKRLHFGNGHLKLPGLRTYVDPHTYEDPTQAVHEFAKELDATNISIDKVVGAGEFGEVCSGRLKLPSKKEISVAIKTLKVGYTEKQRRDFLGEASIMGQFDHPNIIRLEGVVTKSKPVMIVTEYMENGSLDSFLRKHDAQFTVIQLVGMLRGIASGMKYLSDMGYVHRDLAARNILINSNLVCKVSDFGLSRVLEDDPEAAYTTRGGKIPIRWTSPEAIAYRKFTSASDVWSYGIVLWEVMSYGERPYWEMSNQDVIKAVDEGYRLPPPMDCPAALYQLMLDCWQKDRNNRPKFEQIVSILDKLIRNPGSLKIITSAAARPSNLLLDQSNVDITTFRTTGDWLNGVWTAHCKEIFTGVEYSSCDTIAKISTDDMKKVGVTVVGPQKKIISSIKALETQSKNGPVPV
Sequence of Calcium/calmodulin-dependent protein kinase type II subunit gamma (Homo sapiens) (Q13555 whole entry): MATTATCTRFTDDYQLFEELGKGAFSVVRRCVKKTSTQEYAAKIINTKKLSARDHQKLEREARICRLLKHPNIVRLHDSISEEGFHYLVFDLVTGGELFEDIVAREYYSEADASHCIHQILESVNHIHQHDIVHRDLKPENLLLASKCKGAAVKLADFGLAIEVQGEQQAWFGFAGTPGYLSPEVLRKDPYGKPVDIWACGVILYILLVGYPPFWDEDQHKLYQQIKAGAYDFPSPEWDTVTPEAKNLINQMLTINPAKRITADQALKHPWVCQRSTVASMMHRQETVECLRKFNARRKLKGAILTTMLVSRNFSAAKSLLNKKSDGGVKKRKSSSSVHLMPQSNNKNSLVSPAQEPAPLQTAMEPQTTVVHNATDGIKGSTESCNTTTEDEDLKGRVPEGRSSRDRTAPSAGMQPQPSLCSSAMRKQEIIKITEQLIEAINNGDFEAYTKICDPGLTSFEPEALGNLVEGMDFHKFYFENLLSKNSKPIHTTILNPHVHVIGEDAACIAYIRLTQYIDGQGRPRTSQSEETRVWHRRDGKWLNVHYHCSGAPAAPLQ
Sequence of Dual specificity mitogen-activated protein kinase kinase; MEK1/2 (Homo sapiens) (P36507 whole entry, looked up): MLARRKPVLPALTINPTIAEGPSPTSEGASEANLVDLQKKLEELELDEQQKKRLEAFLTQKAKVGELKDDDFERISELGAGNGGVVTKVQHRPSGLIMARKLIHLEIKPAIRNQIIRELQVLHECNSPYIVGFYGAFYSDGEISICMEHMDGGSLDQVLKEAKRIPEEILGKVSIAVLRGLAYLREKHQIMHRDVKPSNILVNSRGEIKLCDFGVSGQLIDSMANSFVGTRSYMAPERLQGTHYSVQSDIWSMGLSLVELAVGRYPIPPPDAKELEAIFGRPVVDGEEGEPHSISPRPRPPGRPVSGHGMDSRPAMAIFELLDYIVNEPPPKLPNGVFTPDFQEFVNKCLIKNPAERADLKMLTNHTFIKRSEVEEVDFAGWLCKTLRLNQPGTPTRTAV
Sequence of Dual specificity mitogen-activated protein kinase kinase; MEK1/2 (Homo sapiens) (Q02750 whole entry, looked up): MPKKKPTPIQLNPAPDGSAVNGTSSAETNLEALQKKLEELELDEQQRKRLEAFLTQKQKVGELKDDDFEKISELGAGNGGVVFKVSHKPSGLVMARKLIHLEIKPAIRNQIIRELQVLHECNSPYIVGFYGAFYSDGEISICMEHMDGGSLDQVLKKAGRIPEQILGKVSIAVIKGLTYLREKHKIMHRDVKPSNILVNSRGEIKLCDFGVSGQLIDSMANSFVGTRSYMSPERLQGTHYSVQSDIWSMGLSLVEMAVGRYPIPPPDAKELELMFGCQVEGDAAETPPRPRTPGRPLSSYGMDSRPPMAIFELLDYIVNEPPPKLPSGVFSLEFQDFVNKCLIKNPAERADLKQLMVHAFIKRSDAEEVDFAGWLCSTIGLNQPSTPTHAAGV
Sequence of Phosphatidylinositol 4,5-bisphosphate 3-kinase catalytic subunit alpha isoform (Homo sapiens) (P42336 whole entry, canonical isoform): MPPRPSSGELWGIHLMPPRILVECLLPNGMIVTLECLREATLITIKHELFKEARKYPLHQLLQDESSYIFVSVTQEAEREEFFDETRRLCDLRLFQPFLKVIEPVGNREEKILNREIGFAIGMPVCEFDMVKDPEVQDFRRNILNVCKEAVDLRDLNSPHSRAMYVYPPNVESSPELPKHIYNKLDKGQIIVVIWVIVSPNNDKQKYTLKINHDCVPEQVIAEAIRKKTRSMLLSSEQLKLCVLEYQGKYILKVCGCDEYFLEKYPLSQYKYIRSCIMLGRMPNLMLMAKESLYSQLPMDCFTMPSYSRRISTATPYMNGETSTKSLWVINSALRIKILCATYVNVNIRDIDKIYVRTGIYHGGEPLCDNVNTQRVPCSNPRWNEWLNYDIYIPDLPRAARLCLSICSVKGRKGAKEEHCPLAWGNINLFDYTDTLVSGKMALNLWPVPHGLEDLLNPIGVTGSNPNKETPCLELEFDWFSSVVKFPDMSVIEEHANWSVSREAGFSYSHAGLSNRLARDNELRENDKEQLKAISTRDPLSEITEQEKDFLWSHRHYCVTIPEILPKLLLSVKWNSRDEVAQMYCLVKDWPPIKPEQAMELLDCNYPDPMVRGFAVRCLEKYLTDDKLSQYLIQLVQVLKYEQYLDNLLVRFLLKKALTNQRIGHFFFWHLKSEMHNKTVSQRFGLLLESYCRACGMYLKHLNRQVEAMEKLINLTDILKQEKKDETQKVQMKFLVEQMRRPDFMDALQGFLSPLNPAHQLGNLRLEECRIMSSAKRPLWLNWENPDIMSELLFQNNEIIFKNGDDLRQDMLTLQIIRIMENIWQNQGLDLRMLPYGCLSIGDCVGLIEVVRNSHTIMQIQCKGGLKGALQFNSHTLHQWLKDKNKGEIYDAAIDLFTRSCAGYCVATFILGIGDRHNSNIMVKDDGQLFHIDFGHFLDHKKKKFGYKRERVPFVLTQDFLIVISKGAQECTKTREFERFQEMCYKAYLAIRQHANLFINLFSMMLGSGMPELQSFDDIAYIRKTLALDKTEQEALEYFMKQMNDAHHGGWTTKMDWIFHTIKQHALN
Sequence of Mitogen-activated protein kinase kinase kinase 11 (Homo sapiens) (Q16584 whole entry, looked up): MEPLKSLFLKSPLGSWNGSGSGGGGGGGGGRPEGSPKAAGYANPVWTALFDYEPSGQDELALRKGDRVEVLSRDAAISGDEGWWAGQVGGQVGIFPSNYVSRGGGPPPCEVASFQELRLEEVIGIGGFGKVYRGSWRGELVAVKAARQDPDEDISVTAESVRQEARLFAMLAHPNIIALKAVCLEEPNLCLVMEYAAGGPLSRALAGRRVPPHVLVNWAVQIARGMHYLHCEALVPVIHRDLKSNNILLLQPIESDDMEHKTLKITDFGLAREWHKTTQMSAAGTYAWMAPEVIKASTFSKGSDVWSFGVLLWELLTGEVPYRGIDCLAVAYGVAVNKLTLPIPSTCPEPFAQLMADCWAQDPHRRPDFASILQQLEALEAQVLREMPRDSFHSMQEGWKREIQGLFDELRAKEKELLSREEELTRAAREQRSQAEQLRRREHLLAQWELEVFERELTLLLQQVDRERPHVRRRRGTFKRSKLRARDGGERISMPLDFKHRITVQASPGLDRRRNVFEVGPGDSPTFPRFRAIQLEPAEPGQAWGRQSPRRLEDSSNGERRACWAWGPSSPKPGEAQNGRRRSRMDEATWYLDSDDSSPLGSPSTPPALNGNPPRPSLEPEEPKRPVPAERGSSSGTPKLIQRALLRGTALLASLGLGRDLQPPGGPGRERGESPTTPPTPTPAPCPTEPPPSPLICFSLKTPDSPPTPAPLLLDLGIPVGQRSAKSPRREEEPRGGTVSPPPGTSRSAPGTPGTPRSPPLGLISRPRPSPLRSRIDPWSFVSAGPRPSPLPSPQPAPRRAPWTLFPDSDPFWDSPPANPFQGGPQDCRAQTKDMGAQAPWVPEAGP

Take `CCN1CCN(Cc2ccc(NC(=O)c3ccc(C)c(/C=C/c4cnc5[nH]ccc5c4OC)c3)cc2C(F)(F)F)CC1`: the residual activity came out at 5.7% in test [1] and 4.3% in [4]. Also, the inhibition in test [2] turned out to be 39%; in test [3] it was 21%; in [5], 37.6%.

In test [6], `CCN1CCN(Cc2ccc(NC(=O)c3ccc(C)c(Oc4ccnc5[nH]ccc45)c3)cc2C(F)(F)F)CC1` registered an inhibition at 10 µM of 11.8%. Besides, the inhibition result in test [7] was “inactive”. In addition, the inhibition in test [8] worked out at 5.5%.

On to `CNc1cc(Oc2cc(C(=O)Nc3cc(N4CCN(C)CC4)cc(C(F)(F)F)c3)ccc2C)ncn1`, for which the inhibition in test [9] amounted to 20.3%; in test [10] it was 3.4%.
